Values of other authors, collected in patent US8455540B2, “Gossypol and apogossypol derivatives, preparation thereof and uses thereof” (Universite du Maine (Le Mans), priority 2007, dated 2013).

What was measured:
[1] = tested on: proteins of the Bcl-2 family; settings: compared with gossypol (apogossypol = deformylated gossypol)
various types of cancers = settings: compared with gossypol (apogossypol = deformylated gossypol)

Cc1cc2c(C(C)C)c(O)c(O)cc2c(O)c1-c1c(C)cc2c(C(C)C)c(O)c(O)cc2c1O [apogossypol]
activity on proteins of the Bcl-2 family [1]: fully retains its activity | activity on various types of cancers (various types of cancers): fully retains its activity
